Data on one molecule can be found in paper PMC6934184, “Selective DNA-PKcs inhibition extends the therapeutic index of localized radiotherapy and chemotherapy” (The Journal of Clinical Investigation, 2019).

The test has as its target T1, NEK1 (Homo sapiens, UniProt Q96PY6).
T1 construct: purchased Thermo Fisher Scientific (Life Technologies) SelectScreen
The test is described as follows: SelectScreen Z'LYTE. The class given is biochemical. The procedure, abridged: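 SelectScreen broad panel; activity (Z'LYTE, Adapta) plus binding formats. ATP: Km app for CSF1R Z'LYTE; 10 for CAMK1 Adapta. Readout = % per kinase.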

T1 sequence (Q96PY6 whole entry): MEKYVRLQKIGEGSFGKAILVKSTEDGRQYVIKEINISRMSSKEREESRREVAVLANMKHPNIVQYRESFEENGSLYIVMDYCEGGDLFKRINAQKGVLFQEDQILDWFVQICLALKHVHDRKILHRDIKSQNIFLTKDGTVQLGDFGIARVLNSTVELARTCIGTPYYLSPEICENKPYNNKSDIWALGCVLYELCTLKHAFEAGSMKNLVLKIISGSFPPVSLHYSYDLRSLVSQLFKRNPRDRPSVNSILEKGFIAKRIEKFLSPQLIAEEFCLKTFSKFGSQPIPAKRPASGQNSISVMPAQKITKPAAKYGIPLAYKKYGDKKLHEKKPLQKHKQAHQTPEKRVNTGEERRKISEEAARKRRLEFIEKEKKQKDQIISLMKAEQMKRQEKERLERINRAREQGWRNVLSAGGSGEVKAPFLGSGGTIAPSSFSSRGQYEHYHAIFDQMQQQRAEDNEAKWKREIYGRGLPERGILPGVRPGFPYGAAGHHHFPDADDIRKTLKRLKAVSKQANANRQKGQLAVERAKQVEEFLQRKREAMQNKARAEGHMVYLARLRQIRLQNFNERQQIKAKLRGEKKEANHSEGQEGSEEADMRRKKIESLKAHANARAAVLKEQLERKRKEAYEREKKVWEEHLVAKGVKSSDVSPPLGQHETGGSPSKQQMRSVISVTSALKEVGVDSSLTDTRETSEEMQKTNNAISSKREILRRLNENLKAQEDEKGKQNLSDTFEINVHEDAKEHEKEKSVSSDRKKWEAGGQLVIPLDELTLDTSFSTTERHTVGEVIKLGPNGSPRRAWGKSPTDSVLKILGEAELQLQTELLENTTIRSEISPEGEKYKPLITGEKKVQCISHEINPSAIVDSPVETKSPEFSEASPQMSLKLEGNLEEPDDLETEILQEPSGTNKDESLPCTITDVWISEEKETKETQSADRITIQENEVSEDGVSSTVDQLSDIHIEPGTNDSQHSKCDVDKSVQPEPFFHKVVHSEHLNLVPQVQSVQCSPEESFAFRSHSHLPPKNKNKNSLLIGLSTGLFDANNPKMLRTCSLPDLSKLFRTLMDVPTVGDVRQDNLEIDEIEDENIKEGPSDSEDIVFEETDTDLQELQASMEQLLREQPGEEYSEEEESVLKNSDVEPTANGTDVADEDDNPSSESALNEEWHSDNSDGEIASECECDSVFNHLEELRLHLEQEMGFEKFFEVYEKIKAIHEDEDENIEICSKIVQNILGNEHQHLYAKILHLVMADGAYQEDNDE

Regarding `CN(C(=O)CN1CCOCC1)c1ccc2sc3c(-c4cccc5c(=O)cc(N6CC7CCC(C6)O7)oc45)cccc3c2c1` [NU5455], the inhibition at 1 µM worked out at 12.9%.

What is called inhibition is the relative decrease from the control value, in per cent. Higher therefore signals strong suppression.
